Laboratory results published in ChEMBL document CHEMBL4052642, “4-Methyl-6,7-dihydro-4H-triazolo[4,5-c]pyridine-Based P2X7 Receptor Antagonists: Optimization of Pharmacokinetic Properties Leading to the Identification of a Clinical Candidate” (J Med Chem, 2017).
Values after ≈ are worked out from the molar mass of the structure shown. One block for each compound: values may come before it.

What was measured:
Cytochrome P450 3A4 = Cytochrome P450 3A4 (Homo sapiens, UniProt P08684); experiment: Inhibition of CYP3A4 in human liver microsomes using midazolam as substrate after 15 mins by LC-MS/MS analysis; type: ADME
Chain of Cytochrome P450 3A4 (P08684 whole entry): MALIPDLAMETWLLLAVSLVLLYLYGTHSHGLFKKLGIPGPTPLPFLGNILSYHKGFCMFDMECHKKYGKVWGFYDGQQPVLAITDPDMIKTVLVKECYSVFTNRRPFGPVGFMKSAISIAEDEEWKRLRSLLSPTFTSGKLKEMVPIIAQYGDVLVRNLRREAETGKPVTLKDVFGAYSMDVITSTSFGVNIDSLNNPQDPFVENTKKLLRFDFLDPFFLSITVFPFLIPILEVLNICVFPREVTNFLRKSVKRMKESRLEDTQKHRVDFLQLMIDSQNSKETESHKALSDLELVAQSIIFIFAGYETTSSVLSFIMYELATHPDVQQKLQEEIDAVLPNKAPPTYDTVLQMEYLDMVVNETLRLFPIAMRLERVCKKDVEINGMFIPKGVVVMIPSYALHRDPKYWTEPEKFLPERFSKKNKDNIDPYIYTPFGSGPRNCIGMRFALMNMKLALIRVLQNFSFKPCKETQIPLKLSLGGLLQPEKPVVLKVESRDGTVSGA

Cytochrome P450 2D6 = Cytochrome P450 2D6 (Homo sapiens, UniProt P10635); experiment: Inhibition of CYP2D6 in human liver microsomes using dextromethorphan as substrate after 15 mins by LC-MS/MS analysis; type: ADME
Chain of Cytochrome P450 2D6 (P10635 whole entry): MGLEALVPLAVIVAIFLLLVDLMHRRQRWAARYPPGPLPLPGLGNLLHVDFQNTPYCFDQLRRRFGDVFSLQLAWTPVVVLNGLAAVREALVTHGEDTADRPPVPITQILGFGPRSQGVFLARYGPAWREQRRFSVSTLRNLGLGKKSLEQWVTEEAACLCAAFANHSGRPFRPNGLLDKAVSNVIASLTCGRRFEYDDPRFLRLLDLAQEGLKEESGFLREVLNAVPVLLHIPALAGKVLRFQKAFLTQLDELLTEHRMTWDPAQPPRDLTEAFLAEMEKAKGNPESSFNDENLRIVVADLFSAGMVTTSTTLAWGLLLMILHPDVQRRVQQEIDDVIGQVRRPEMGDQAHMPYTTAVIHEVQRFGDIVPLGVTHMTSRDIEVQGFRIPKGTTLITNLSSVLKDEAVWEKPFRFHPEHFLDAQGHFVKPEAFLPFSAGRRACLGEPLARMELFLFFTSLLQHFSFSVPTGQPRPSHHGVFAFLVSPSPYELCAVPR

Cytochrome P450 2C9 [1] = biological target: T1, Cytochrome P450 2C9 (Homo sapiens, UniProt P11712); experiment: Inhibition of CYP2C9 in human liver microsomes using diclofenac as substrate after 15 mins by LC-MS/MS analysis; type: ADME
T1 sequence (P11712 whole entry): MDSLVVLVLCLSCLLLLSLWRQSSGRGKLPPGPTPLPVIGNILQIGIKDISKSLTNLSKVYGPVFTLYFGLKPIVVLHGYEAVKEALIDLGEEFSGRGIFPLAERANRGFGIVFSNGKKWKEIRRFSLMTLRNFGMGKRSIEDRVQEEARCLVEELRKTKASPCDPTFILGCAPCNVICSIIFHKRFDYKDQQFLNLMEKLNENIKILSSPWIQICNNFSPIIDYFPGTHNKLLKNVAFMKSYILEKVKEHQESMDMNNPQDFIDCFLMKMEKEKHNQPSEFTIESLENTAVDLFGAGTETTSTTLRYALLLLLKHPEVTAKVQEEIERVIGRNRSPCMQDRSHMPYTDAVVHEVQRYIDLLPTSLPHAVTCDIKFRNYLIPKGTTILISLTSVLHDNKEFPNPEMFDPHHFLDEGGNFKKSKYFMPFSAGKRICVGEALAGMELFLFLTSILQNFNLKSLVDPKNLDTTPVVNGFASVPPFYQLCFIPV

Cytochrome P450 2C19 [2] = biological target: T2, Cytochrome P450 2C19 (Homo sapiens, UniProt P33261); experiment: Inhibition of CYP2C19 in human liver microsomes using S-mephenytoin as substrate after 15 mins by LC-MS/MS analysis; type: ADME
T2 sequence (P33261 whole entry): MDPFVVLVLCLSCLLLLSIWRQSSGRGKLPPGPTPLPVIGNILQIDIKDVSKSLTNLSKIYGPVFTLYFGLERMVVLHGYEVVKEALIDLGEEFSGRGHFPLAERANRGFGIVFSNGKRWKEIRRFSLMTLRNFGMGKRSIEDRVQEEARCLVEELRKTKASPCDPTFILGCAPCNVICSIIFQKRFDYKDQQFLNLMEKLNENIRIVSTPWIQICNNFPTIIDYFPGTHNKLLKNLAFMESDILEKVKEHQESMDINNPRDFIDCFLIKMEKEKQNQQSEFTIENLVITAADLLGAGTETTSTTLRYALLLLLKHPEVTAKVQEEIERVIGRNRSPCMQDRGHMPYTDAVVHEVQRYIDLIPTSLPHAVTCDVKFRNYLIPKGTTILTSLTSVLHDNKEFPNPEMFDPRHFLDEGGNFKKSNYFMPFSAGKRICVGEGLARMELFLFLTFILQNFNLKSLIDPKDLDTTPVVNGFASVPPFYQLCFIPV

Cytochrome P450 2C8 = biological target: T3, Cytochrome P450 2C8 (Homo sapiens, UniProt P10632); experiment: Inhibition of CYP2C8 in human liver microsomes using paclitaxel as substrate after 15 mins by LC-MS/MS analysis; type: ADME
T3 sequence (P10632 whole entry): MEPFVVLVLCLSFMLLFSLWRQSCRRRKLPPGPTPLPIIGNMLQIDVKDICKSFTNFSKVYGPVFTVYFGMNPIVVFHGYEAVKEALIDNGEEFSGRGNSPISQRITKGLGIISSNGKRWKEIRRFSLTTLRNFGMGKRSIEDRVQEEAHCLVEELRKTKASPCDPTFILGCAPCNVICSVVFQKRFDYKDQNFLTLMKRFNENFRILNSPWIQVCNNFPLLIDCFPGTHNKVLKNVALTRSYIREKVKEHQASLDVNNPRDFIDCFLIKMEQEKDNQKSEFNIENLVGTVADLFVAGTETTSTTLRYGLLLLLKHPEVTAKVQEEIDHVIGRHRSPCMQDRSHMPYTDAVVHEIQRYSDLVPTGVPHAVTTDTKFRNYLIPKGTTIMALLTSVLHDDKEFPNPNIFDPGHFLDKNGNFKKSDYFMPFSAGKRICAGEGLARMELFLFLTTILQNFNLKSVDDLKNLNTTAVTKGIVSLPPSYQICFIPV

Cytochrome P450 1A2 = biological target: T4, Cytochrome P450 1A2 (Homo sapiens, UniProt P05177); experiment: Inhibition of CYP1A2 in human liver microsomes using phenacetin as substrate after 15 mins by LC-MS/MS analysis; type: ADME
T4 sequence (P05177 whole entry): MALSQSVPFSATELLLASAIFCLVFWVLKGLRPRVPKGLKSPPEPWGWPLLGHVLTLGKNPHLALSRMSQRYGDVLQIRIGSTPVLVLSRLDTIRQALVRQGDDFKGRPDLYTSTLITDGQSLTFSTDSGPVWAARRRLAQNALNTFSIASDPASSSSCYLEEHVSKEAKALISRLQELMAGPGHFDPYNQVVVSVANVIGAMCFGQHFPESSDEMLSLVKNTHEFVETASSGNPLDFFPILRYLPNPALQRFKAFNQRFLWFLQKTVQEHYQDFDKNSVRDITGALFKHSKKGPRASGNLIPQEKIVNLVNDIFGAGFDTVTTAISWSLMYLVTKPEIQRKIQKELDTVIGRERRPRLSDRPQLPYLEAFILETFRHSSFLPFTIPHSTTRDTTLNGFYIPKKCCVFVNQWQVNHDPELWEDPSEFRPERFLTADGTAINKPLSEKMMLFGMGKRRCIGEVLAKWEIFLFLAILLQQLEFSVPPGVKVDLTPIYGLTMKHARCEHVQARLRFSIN

[3] = Solubility of compound in phosphate buffer at pH 7 after 3 days; type: physicochemical
[4] = Solubility of compound in phosphate buffer at pH 2 after 3 days; type: physicochemical
[5] = Protein binding in human plasma at 1 uM after 6 hrs by equilibrium dialysis method; type: ADME, cell-free; conditions: read-out: PPB (converted)
[6] = Protein binding in mouse plasma at 1 uM after 6 hrs by equilibrium dialysis method; type: ADME, cell-free; conditions: read-out: PPB (converted)
[7] = Protein binding in rat plasma at 1 uM after 6 hrs by equilibrium dialysis method; type: ADME, cell-free; conditions: read-out: PPB (converted)
[8] = biological target: Voltage-gated inwardly rectifying potassium channel KCNH2 (Homo sapiens, UniProt Q12809); experiment: Inhibition of [3H]-dofetilide binding to human ERG expressed in HEK293 cells; type: cell-based
Chain of Voltage-gated inwardly rectifying potassium channel KCNH2 (Q12809 whole entry): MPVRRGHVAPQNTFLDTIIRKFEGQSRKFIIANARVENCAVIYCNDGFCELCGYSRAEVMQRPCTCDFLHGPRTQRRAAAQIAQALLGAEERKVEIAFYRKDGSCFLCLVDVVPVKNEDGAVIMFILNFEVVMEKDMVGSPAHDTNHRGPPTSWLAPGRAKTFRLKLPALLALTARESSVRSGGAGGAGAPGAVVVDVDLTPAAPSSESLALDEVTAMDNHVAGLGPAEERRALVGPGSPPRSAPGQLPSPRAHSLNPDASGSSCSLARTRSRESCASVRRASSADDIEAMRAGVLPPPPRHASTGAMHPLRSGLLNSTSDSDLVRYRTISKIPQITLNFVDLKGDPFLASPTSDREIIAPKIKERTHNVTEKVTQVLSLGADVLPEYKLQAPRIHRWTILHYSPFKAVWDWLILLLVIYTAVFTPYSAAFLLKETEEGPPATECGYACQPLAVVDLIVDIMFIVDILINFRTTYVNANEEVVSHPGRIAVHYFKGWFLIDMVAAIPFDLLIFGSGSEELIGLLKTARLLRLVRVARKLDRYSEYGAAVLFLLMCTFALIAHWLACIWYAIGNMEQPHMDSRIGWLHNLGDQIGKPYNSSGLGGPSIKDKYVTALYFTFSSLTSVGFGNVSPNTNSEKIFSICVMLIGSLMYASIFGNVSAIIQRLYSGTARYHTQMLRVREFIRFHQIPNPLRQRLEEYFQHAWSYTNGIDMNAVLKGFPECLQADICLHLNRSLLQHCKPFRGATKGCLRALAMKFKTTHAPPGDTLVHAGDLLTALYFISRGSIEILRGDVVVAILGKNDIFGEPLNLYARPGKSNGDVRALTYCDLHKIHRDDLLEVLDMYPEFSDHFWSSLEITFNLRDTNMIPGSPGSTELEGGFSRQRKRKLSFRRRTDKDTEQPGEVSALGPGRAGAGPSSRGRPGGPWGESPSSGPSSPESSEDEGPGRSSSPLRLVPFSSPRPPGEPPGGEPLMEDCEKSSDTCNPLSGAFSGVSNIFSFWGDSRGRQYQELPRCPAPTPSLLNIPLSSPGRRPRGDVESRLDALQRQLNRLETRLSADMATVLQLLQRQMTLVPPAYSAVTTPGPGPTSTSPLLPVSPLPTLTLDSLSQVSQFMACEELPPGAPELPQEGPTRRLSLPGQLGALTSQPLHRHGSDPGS

Rattus norvegicus [9] = experiment: Toxicity in rat assessed as autoinduction at 50 to 150 mg/kg administered via oral gavage on day 1 and day 4; type: organism-based; conditions: in vivo
Rattus norvegicus [10] = experiment: Toxicity in rat assessed as increase in liver weight at 50 to 150 mg/kg administered via oral gavage on day 1 and day 4; type: organism-based; conditions: in vivo
Rattus norvegicus [11] = experiment: Toxicity in rat assessed as hepatic lipidosis at 50 to 350 mg/kg administered via oral gavage on day 1 and day 4 measured on day 5 by hematoxylin/eosin staining-based microscopic method; type: organism-based; conditions: in vivo
Plasma = experiment: Plasma concentration in rat at 250 mg/kg administered single dose via oral gavage; type: ADME, organism-based; conditions: in vivo
Rattus norvegicus [12] = experiment: Toxicity in rat assessed as ataxia at 500 to 1000 mg/kg administered single dose via oral gavage; type: organism-based; conditions: in vivo
Rattus norvegicus [13] = experiment: Toxicity in rat assessed as decrease in activity at 250 to 1000 mg/kg administered single dose via oral gavage; type: organism-based; conditions: in vivo
Cytochrome P450 2C9 [14] = biological target: T1, Cytochrome P450 2C9; experiment: Drug metabolism assessed as recombinant human CYP2C9-mediated metabolite formation; type: ADME; conditions: recombinant enzyme
Cytochrome P450 2C19 [15] = biological target: T2, Cytochrome P450 2C19; experiment: Drug metabolism assessed as recombinant human CYP2C19-mediated metabolite formation; type: ADME; conditions: recombinant enzyme
Rattus norvegicus [16] = experiment: Drug metabolism in Sprague-Dawley rat assessed as formation of (R)-(2-chloro-3-(trifluoromethyl)phenyl)(4-methyl-1,4,6,7-tetrahydro-5H-[1,2,3]triazolo[4,5-c]pyridin-5-yl)methanone at 1 mg/kg, iv or 5 mg/kg, po by LC-MS/MS analysis; type: ADME, organism-based; conditions: in vivo
[17] = Drug excretion in Sprague-Dawley rat at 1 mg/kg, iv or 5 mg/kg, po by LC-MS/MS analysis; type: ADME, organism-based; conditions: in vivo, read-out: Drug excretion
[18] = Oral bioavailability in Balb/c mouse at 5 mg/kg by LC-MS/MS analysis; type: ADME, organism-based; conditions: in vivo
[19] = Oral bioavailability in cynomolgus monkey at 5 mg/kg by LC-MS/MS analysis; type: ADME, organism-based, Macaca fascicularis; conditions: in vivo
[20] = Oral bioavailability in beagle dog at 2.5 mg/kg by LC-MS/MS analysis; type: ADME, organism-based, Canis lupus familiaris; conditions: beagle, in vivo
[21] = Half life in Balb/c mouse at 1 mg/kg, iv by LC-MS/MS analysis; type: ADME, organism-based; conditions: in vivo
[22] = Half life in cynomolgus monkey at 1 mg/kg, iv by LC-MS/MS analysis; type: ADME, organism-based, Macaca fascicularis; conditions: in vivo
[23] = Half life in beagle dog at 0.5 mg/kg, iv by LC-MS/MS analysis; type: ADME, organism-based, Canis lupus familiaris; conditions: in vivo
[24] = Volume of distribution at steady state in Balb/c mouse at 1 mg/kg, iv or 5 mg/kg, po by LC-MS/MS analysis; type: ADME, organism-based; conditions: in vivo, read-out: Vdss
[25] = Volume of distribution at steady state in cynomolgus monkey at 1 mg/kg, iv or 5 mg/kg, po by LC-MS/MS analysis; type: ADME, organism-based, Macaca fascicularis; conditions: in vivo, read-out: Vdss
[26] = Volume of distribution at steady state in beagle dog at 0.5 mg/kg, iv or 2.5 mg/kg, po by LC-MS/MS analysis; type: ADME, organism-based, Canis lupus familiaris; conditions: in vivo, read-out: Vdss
[27] = Clearance in cynomolgus monkey at 1 mg/kg, iv or 5 mg/kg, po by LC-MS/MS analysis; type: ADME, organism-based, Macaca fascicularis; conditions: in vivo
[28] = Clearance in beagle dog at 0.5 mg/kg, iv or 2.5 mg/kg, po by LC-MS/MS analysis; type: ADME, organism-based, Canis lupus familiaris; conditions: in vivo
[29] = Clearance in Balb/c mouse at 1 mg/kg, iv or 5 mg/kg, po by LC-MS/MS analysis; type: ADME, organism-based; conditions: in vivo
[30] = Ratio of drug level in po dosed Sprague-Dawley rat brain to plasma; type: ADME, organism-based; conditions: read-out: BPR
Rattus norvegicus [31] = experiment: Ex vivo receptor occupancy at P2X7 in po dosed Sprague-Dawley rat brain after 60 mins by autoradiography; type: functional
Rattus norvegicus [32] = experiment: Ex vivo receptor occupancy at P2X7 in po dosed Sprague-Dawley rat brain assessed as plasma concentration required to achieve EC50 after 60 mins by autoradiography; type: functional, organism-based
[33] = Oral bioavailability in Sprague-Dawley rat at 5 mg/kg by LC-MS/MS analysis; type: ADME, organism-based; conditions: in vivo
[34] = Half life in Sprague-Dawley rat at 1 mg/kg, iv by LC-MS/MS analysis; type: ADME, organism-based; conditions: in vivo
[35] = Volume of distribution at steady state in Sprague-Dawley rat at 1 mg/kg, iv or 5 mg/kg, po by LC-MS/MS analysis; type: ADME, organism-based; conditions: in vivo, read-out: Vdss
[36] = Clearance in Sprague-Dawley rat at 1 mg/kg, iv or 5 mg/kg, po by LC-MS/MS analysis; type: ADME, organism-based; conditions: in vivo
Rattus norvegicus [37] = experiment: Drug level in Sprague-Dawley rat treated with(R)-(2-Chloro-3-(trifluoromethyl)phenyl)(4-methyl-1-(pyrimidin-2-yl)-1,4,6,7-tetrahydro-5H-[1,2,3]triazolo[4,5-c]pyridin-5-yl)methanone at 1 mg/kg, iv or 5 mg/kg, po by LC-MS/MS analysis; type: ADME, organism-based; conditions: in vivo

IC50 (Cytochrome P450 3A4): > 10 µM
IC50 (Cytochrome P450 2D6): > 10 µM
IC50 (Cytochrome P450 2C9 [1]): 2.8 µM
IC50 (Cytochrome P450 2C19 [2]): 2.1 µM
IC50 (Cytochrome P450 2C8): > 10 µM
IC50 (Cytochrome P450 1A2): > 10 µM
solubility at 72 h [3]: 2.1 µM (≈ 0.924 µg/mL)
solubility at 72 h [4]: 4.8 µM (≈ 2.11 µg/mL)
fraction unbound at 6 h, 1 µM [5]: 0.024
fraction unbound at 6 h, 1 µM [6]: 0.042
fraction unbound at 6 h, 1 µM [7]: 0.052
SMILES: C[C@@H]1c2nnn(-c3cc(F)ccn3)c2CCN1C(=O)c1cccc(C(F)(F)F)c1Cl
IC50 [8]: > 10 µM

concentration (Plasma): 175 µM
Drug metabolism (Cytochrome P450 2C9 [14]): Metabolite_Detected
Drug metabolism (Cytochrome P450 2C19 [15]): Metabolite_Detected
Drug metabolism (Rattus norvegicus [16]): Metabolite_Detected
dose excreted [17]: 0.4%
bioavailability [18]: 61%
bioavailability [19]: 5%
bioavailability [20]: 70%
half-life [21]: 24 min
half-life [22]: 48 min
half-life [23]: 660 min
Vd [24]: 1.1 L/kg
Vd [25]: 0.9 L/kg
Vd [26]: 1.3 L/kg
clearance [27]: 19 mL/min/kg
clearance [28]: 1.4 mL/min/kg
clearance [29]: 32 mL/min/kg
IC50 (Cytochrome P450 3A4): > 10 µM
IC50 (Cytochrome P450 2D6): > 10 µM
IC50 (Cytochrome P450 2C9 [1]): > 10 µM
IC50 (Cytochrome P450 2C19 [2]): > 10 µM
IC50 (Cytochrome P450 2C8): > 10 µM
IC50 (Cytochrome P450 1A2): > 10 µM
Kp [30]: 0.8
Occ (Rattus norvegicus [31]): Dose-dependent effect
Cp (Rattus norvegicus [32]): 27 ng/mL
bioavailability [33]: 92%
half-life [34]: 30 min
Vd [35]: 1.5 L/kg
solubility at 72 h [3]: 180 µM (≈ 76.1 µg/mL)
clearance [36]: 66 mL/min/kg
solubility at 72 h [4]: > 400 µM
fraction unbound at 6 h, 1 µM [5]: 0.084
fraction unbound at 6 h, 1 µM [6]: 0.074
fraction unbound at 6 h, 1 µM [7]: 0.076
SMILES: C[C@@H]1c2nnn(-c3ncccn3)c2CCN1C(=O)c1cccc(C(F)(F)F)c1Cl
Activity (Rattus norvegicus [9]): Toxic
Activity (Rattus norvegicus [10]): Toxic
Activity (Rattus norvegicus [11]): Toxic
Activity (Rattus norvegicus [12]): Toxic
Activity (Rattus norvegicus [13]): Toxic
ED50 (Rattus norvegicus [31]; 1 h): 0.9 mg/kg
IC50 [8]: > 10 µM

Drug metabolism (Rattus norvegicus [37]): Metabolite_Detected
SMILES: C[C@@H]1c2nn[nH]c2CCN1C(=O)c1cccc(C(F)(F)F)c1Cl
